Assay results reported in publication PMC4604124, “In Vitro Characterization of the Pharmacological Properties of the Anti-Cancer Chelator, Bp4eT, and Its Phase I Metabolites” (PLoS ONE, 2015).
“And” between values parts separate entries of the source, which are not always exact repeats. Equal entries are not always repeated. Where two headings read alike, the source gives them in different places.

How the values were obtained:
[1] = Ascorbate oxidation assay (redox activity of iron complexes); format: biochemical;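 on %Fe 30min (ascorbate oxidation, Fe 100%), průměr: IBE 3 means excess free chelator over iron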;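 on %Fe 30min (ascorbate oxidation, Fe 100%): IBE 3 means excess free chelator over iron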;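 on %Fe 30min (ascorbate oxidation, Fe = 100%), průměr (mean): IBE 1 means iron-binding equivalents giving fully coordinated iron-chelator complexes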;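 on %Fe 30min (ascorbate oxidation, Fe = 100%), single replicates: IBE 1 means iron-binding equivalents giving fully coordinated iron-chelator complexes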;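 on %Fe 30min: ascorbate oxidation as % of the Fe control (Fe 100%): IBE 0.1 means iron-binding equivalents with iron in excess over chelator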;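 on Change of absorbance, odečet 0 (time 0 subtracted), čas 10, průměr: IBE 3 means excess free chelator over 10 µM FeCl3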;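 on Change of absorbance, odečet 0 (time 0 subtracted), čas 10: IBE 3 means excess free chelator over 10 µM FeCl3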;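 on Change of absorbance, odečet 0 (time 0 subtracted), čas 20, průměr: 100 µM ascorbate with 10 µM FeCl3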;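 on Change of absorbance, odečet 0 (time 0 subtracted), čas 20: 100 µM ascorbate with 10 µM FeCl3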;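 on Change of absorbance, odečet 0 (time 0 subtracted), čas 30, průměr: 100 µM ascorbate with 10 µM FeCl3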;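 on Change of absorbance, odečet 0 (time 0 subtracted), čas 30: 100 µM ascorbate with 10 µM FeCl3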;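 on odečet 0 (reading minus time 0 reading) at čas 20, single replicates: IBE 1 means fully coordinated iron chelator complexes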;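 on odečet 0 (reading minus time 0 reading) at čas 30, průměr (mean): IBE 1 means fully coordinated iron chelator complexes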;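 on odečet 0 (reading minus time 0 reading) at čas 30, single replicates: IBE 1 means fully coordinated iron chelator complexes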;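 on raw reading at čas 20 (time 20), průměr (mean): IBE 1 means fully coordinated iron chelator complexes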;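 on raw reading at čas 20 (time 20), single replicates: IBE 1 means fully coordinated iron chelator complexes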;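 on raw reading at čas 30 (time 30), průměr (mean): IBE 1 means fully coordinated iron chelator complexes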;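 on raw reading at čas 30 (time 30), single replicates: IBE 1 means fully coordinated iron chelator complexes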
[2] = Viability (viabilita) used to normalise caspase activity; format: cell-based, human; conditions: human, MCF-7 cells, kontrola = 100;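 further: compound tested at 100 nM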
Excerpt: Supplement pone.0139929.s002.zip/caspases activity.xlsx, sheet "results_viability"

[3] = test system: MCF-7 cells prelabeled with 59Fe2-transferrin; experiment: Mobilization (efflux) of cellular 59Fe; format: cell-based, human; design: Efflux 59Fe / Efflux 59Fe, Ave: unit not given here
Summary of the method: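 Confluent MCF-7 cells prelabeled with 0.75 μM 59Fe2-Tf for 3 h at 37 °C, washed, then exposed to 25 μM compound for 3 h at 37 °C. 59Fe in cells and medium counted by γ-scintillation to give released fraction.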

[4] = test system: 3T3 mouse embryo fibroblasts; experiment: MTT cytotoxicity assay, 3T3 cells; format: cell-based; conditions: for MTT, relative to control (0 = 100): 3T3, 10 000 b/j
Summary of the method: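 Non-cancerous 3T3 mouse embryo fibroblasts were plated at 10,000 cells/well in 96-well plates and cultured for 24 h/37°C. The medium was then replaced with serum- and pyruvate-free DMEM for a further 24 h/37°C. Cells were exposed to agents for 72 h/37°C with 0.1% DMSO present, and viability was measured by MTT.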

[5] = test system: MCF-7 human breast adenocarcinoma cells; experiment: MTT cytotoxicity assay, MCF-7 cells; format: cell-based; conditions: for IC50: MTT, read-out: IC50
Summary of the method: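 72 h/37°C exposure, 0.1% DMSO. Plating: MCF-7 5,000; HCT116, A549 2,000; H9c2 10,000 cells/well, H9c2 switched to serum/pyruvate-free DMEM 24 h. MTT OD 570 nm, 690 nm background subtracted. Viability as % untreated control; IC50 derived.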

[6] = sheet IBE 1, time 10, replicates
[7] = sheet IBE 1, time 20, replicates
[8] = sheet IBE 1, time 30, replicates

CCNC(=O)NN=C(c1ccccc1)c1ccccn1 [Z-Bp4eS, 2-benzoylpyridine 4-ethylsemicarbazone]
%Fe 30min: ascorbate oxidation as % of the Fe control (Fe 100%) ([1]; IBE 0.1, 30 min, mean (průměr)): 99.02% | Change of absorbance after subtraction of time 0 (odečet 0) ([1]; IBE 0.1, time 10, mean (průměr)): -0.03387 | Change of absorbance after subtraction of time 0 (odečet 0) ([1]; IBE 0.1, time 20, mean (průměr)): -0.06534 | Change of absorbance after subtraction of time 0 (odečet 0) ([1]; IBE 0.1, time 30, mean (průměr)): -0.09415 | Absorbance (ascorbate, λ = 265 nm) ([1]; IBE 0.1, čas 0 (time 0), mean (průměr)): 0.7817 | Absorbance (ascorbate, λ = 265 nm) ([1]; IBE 0.1, čas 10 (time 10), mean (průměr)): 0.7478 | Absorbance (ascorbate, λ = 265 nm) ([1]; IBE 0.1, čas 20 (time 20), mean (průměr)): 0.7164 | Absorbance (ascorbate, λ = 265 nm) ([1]; IBE 0.1, čas 30 (time 30), mean (průměr)): 0.6875 | %Fe 30min (ascorbate oxidation, Fe = 100%), průměr (mean) ([1]; sheet IBE 1, 30min, Fe 100%, mean): 102.1% | %Fe 30min (ascorbate oxidation, Fe = 100%), single replicates ([1]; sheet IBE 1, 30min, Fe 100%, replicates): 100.6% and 105.4% and 99.81% and 137.6% and 115.7% and 98.81% and 93.49% and 86.5% and 81.2% | raw reading at čas 0 (time 0), průměr (mean) ([1]; sheet IBE 1, time 0, mean of 9 readings): 0.8114 | raw reading at čas 0 (time 0), single replicates ([1]; sheet IBE 1, time 0, replicates of 2014-03-24 (two runs) and 2014-03-25): 0.8361 and 0.825 and 0.7812 and 0.7956 and 0.8012 and 0.8226 and 0.8158 and 0.7997 and 0.8255 | odečet 0 (reading minus time 0 reading) at čas 10, průměr (mean) ([1]; sheet IBE 1, time 10, mean): -0.03354 | raw reading at čas 10 (time 10), průměr (mean) ([1]; sheet IBE 1, time 10, mean of 9 readings): 0.7779 | odečet 0 (reading minus time 0 reading) at čas 10, single replicates [1, 6]: -0.0282 and -0.0302 and -0.027 and -0.05761 and -0.03481 and -0.02931 and -0.03593 and -0.03173 and -0.02703 | raw reading at čas 10 (time 10), single replicates [1, 6]: 0.753 and 0.7654 and 0.7742 and 0.765 and 0.781 and 0.7704 and 0.7896 and 0.8044 and 0.798 | odečet 0 (reading minus time 0 reading) at čas 20, průměr (mean) ([1]; sheet IBE 1, time 20, mean): -0.06288 | raw reading at čas 20 (time 20), průměr (mean) ([1]; sheet IBE 1, time 20, mean of 9 readings): 0.7486 | odečet 0 (reading minus time 0 reading) at čas 20, single replicates [1, 7]: -0.05822 and -0.05772 and -0.05662 and -0.09103 and -0.07213 and -0.05933 and -0.06186 and -0.05806 and -0.05096 | raw reading at čas 20 (time 20), single replicates [1, 7]: 0.723 and 0.7379 and 0.7446 and 0.7316 and 0.7437 and 0.7404 and 0.7637 and 0.7781 and 0.7741 | odečet 0 (reading minus time 0 reading) at čas 30, průměr (mean) ([1]; sheet IBE 1, time 30, mean): -0.09054 | raw reading at čas 30 (time 30), průměr (mean) ([1]; sheet IBE 1, time 30, mean of 9 readings): 0.7209 | odečet 0 (reading minus time 0 reading) at čas 30, single replicates [1, 8]: -0.08693 and -0.09103 and -0.08623 and -0.1189 and -0.09997 and -0.08537 and -0.08823 and -0.08163 and -0.07663 | raw reading at čas 30 (time 30), single replicates [1, 8]: 0.6943 and 0.7046 and 0.715 and 0.7038 and 0.7159 and 0.7144 and 0.7373 and 0.7545 and 0.7484 | %Fe 30min (ascorbate oxidation, Fe 100%), průměr ([1]; sheet IBE 3, 30min, Fe alone = 100%, mean (průměr) of the 9 replicates): 110.1% | %Fe 30min (ascorbate oxidation, Fe 100%) ([1]; sheet IBE 3, 30min, Fe alone = 100%, single replicates): 104.7% and 99.68% and 110% and 146.8% and 116.1% and 111.6% and 112.3% and 95.38% and 93.85% | Change of absorbance, odečet 0 (time 0 subtracted), čas 10, průměr ([1]; sheet IBE 3, time 10 minus time 0, mean (průměr)): -0.03903 | Change of absorbance, odečet 0 (time 0 subtracted), čas 10 ([1]; sheet IBE 3, time 10 minus time 0, single replicates): -0.0367 and -0.0322 and -0.0443 and -0.057 and -0.0434 and -0.0428 and -0.03948 and -0.02878 and -0.02658 | Change of absorbance, odečet 0 (time 0 subtracted), čas 20, průměr ([1]; sheet IBE 3, time 20 minus time 0, mean (průměr)): -0.07371 | Change of absorbance, odečet 0 (time 0 subtracted), čas 20 ([1]; sheet IBE 3, time 20 minus time 0, single replicates): -0.07156 and -0.06896 and -0.07856 and -0.1012 and -0.07529 and -0.07709 and -0.07424 and -0.05944 and -0.05704 | Change of absorbance, odečet 0 (time 0 subtracted), čas 30, průměr ([1]; sheet IBE 3, time 30 minus time 0, mean (průměr)): -0.1017 | Change of absorbance, odečet 0 (time 0 subtracted), čas 30 ([1]; sheet IBE 3, time 30 minus time 0, single replicates): -0.09723 and -0.09253 and -0.1021 and -0.1363 and -0.1078 and -0.1036 and -0.1028 and -0.0873 and -0.0859 | viability at 3 h, 100 nM ([2]; 3 hodiny): 97.4% | viability at 24 h, 100 nM ([2]; 24 hodin): 99.5% | viability at 72 h, 100 nM ([2]; 72 hodin): 93.5% | Efflux 59Fe, Ave ([3]; average of all replicates): 3.856 | Efflux 59Fe ([3]; single replicate (three per date)): 5.4747 and 4.265 and 4.3539 and 3.0981 and 3.2068 and 3.9182 and 3.1551 and 3.9954 and 3.2369 | IC50 ([4]; 3T3, 72 h/37°C, MTT, mean ± SD, n ≥ 4, read-out: IC50): > 1000 µM | MTT, relative to control (0 = 100) ([4]; 1 μM, průměr (mean)): 99.81 | MTT, relative to control (0 = 100) ([4]; 1 μM, single experiment (date)): 90.4217 and 112.179 and 103.613 and 93.692 and 99.1404 | MTT, relative to control (0 = 100) ([4]; 3 μM, průměr (mean)): 93.98 | MTT, relative to control (0 = 100) ([4]; 3 μM, single experiment (date)): 89.9896 and 95.9618 and 102.444 and 92.291 and 89.1987 | MTT, relative to control (0 = 100) ([4]; 10 μM, průměr (mean)): 93.85 | MTT, relative to control (0 = 100) ([4]; 10 μM, single experiment (date)): 91.4468 and 99.0627 and 95.1304 and 94.2734 and 89.336 | MTT, relative to control (0 = 100) ([4]; 30 μM, průměr (mean)): 90.21 | MTT, relative to control (0 = 100) ([4]; 30 μM, single experiment (date)): 100.856 and 90.0957 and 87.8236 and 82.0687 | MTT, relative to control (0 = 100) ([4]; 100 μM, průměr (mean)): 73.57 | MTT, relative to control (0 = 100) ([4]; 100 μM, single experiment (date)): 81.8752 and 74.6133 and 74.3643 and 63.4281 | MTT, relative to control (0 = 100) ([4]; 300 μM, průměr (mean)): 72.55 | MTT, relative to control (0 = 100) ([4]; 300 μM, single experiment (date)): 79.104 and 69.1035 and 70.1959 and 71.7888 | MTT, relative to control (0 = 100) ([4]; 1000 μM, průměr (mean)): 63.36 | MTT, relative to control (0 = 100) ([4]; 1000 μM, single experiment (date)): 73.2159 and 60.5042 and 61.05 and 58.6559 | Therapeutic index, IC50 non-cancerous cells / IC50 neoplastic cells ([5]; 3T3/MCF-7): >5.1 | Therapeutic index, IC50 non-cancerous cells / IC50 neoplastic cells ([5]; H9c2/MCF-7): 1.7 | IC50 ([5]; MCF-7, 72 h/37°C, mean ± SD, n ≥ 4): 198 ± 20.9 µM | IC50 ([5]; MCF-7, 5 000 b/j, průměr (mean)): 198 µM | IC50 ([5]; MCF-7, 5 000 b/j, single experiment (by date)): 185 µM and 224 µM and 177 µM and 205 µM | MTT, value relative to 0 μM = 100 ([5]; MCF-7, 5 000 b/j, koncentrace 1 μM, průměr (mean)): 93.54 | MTT, value relative to 0 μM = 100 ([5]; MCF-7, 5 000 b/j, koncentrace 1 μM, single experiment (by date)): 102.478 and 93.2821 and 90.3792 and 88.0305 | MTT, value relative to 0 μM = 100 ([5]; MCF-7, 5 000 b/j, koncentrace 3 μM, průměr (mean)): 89.98 | MTT, value relative to 0 μM = 100 ([5]; MCF-7, 5 000 b/j, koncentrace 3 μM, single experiment (by date)): 104.08 and 86.4853 and 85.3702 and 83.9685 | MTT, value relative to 0 μM = 100 ([5]; MCF-7, 5 000 b/j, koncentrace 10 μM, průměr (mean)): 90.26 | MTT, value relative to 0 μM = 100 ([5]; MCF-7, 5 000 b/j, koncentrace 10 μM, single experiment (by date)): 95.2561 and 95.1363 and 88.6166 and 84.693 and 87.5852 | MTT, value relative to 0 μM = 100 ([5]; MCF-7, 5 000 b/j, koncentrace 30 μM, průměr (mean)): 93.09 | MTT, value relative to 0 μM = 100 ([5]; MCF-7, 5 000 b/j, koncentrace 30 μM, single experiment (by date)): 93.8264 and 93.1628 and 90.8333 and 94.5401 | MTT, value relative to 0 μM = 100 ([5]; MCF-7, 5 000 b/j, koncentrace 100 μM, průměr (mean)): 68.42 | MTT, value relative to 0 μM = 100 ([5]; MCF-7, 5 000 b/j, koncentrace 100 μM, single experiment (by date)): 56.52 and 67.9071 and 73.7709 and 75.4946 | MTT, value relative to 0 μM = 100 ([5]; MCF-7, 5 000 b/j, koncentrace 300 μM, průměr (mean)): 29.85 | MTT, value relative to 0 μM = 100 ([5]; MCF-7, 5 000 b/j, koncentrace 300 μM, single experiment (by date)): 23.6355 and 38.2595 and 25.5292 and 31.9956 | MTT, value relative to 0 μM = 100 ([5]; MCF-7, 5 000 b/j, koncentrace 1000 μM, průměr (mean)): 13.67 | MTT, value relative to 0 μM = 100 ([5]; MCF-7, 5 000 b/j, koncentrace 1000 μM, single experiment (by date)): 18.442 and 16.1441 and 10.4709 and 9.64
